“And” between values parts separate entries of the source, which are not always exact repeats. Equal entries are not always repeated.
Assays:
[1] = test system: patients with prior clomiphene citrate failures; test: Toronto insemination cycles after DHEA (reported study); format: in vivo, human; details: DHEA pregnancies, insemination cycles with clomiphene citrate/letrozole and FSH
Method: In cooperation with Robert F Casper's group at Toronto's Mount Sinai Hospital, they recently reported on 47 patients with prior clomiphene citrate failures who were supplemented with 75 mg daily of DHEA for at least 60 days prior to inseminations, with stimulation by either clomiphene citrate or letrozole in combination with FSH. Controls were 46 women, matched by age and baseline FSH without DHEA supplementation.
The possibility of synergistic gonadotropin and DHEA effects is supported by reanalysis of the Toronto groups' previously noted insemination cycles, stimulated with a clomiphene citrate/letrozole and FSH protocols. […] Final conclusions await, however, further investigations.

[2] = test system: women with diminished ovarian function; test: Case control study of clinical pregnancy with DHEA supplementation (Example 7); format: in vivo, human
Method: A case control study of 190 women over 30 years old with diminished ovarian function were studied between 1999 and December 2005. The study group included 89 patients with a mean age of about 41.6 who used supplementation of about 75 mg daily of oral, micronized DHEA for up to four months prior to entry into IVF. […] The primary outcome was clinical pregnancy after the patient's initial visit.
(§1) Ovarian stimulation was identical for study and control groups and consisted of microdose agonist flare, followed by maximal dosage gonadotropin stimulation, using about 300-450 IU of FSH and about 150 IU of HMG. Study patients received DHEA continuously until a positive pregnancy test was obtained or until the patient dropped out of treatment.
In an additional study, a retrospective analysis of a 190 women with diminished ovarian function above 30 years old, who were treated between 1999 and December 2005 was completed to assess the impact of DHEA supplementation on the time interval to the establishment of pregnancy.
A prequalification for each patient's diagnosis of diminished ovarian function was either a sub-diagnosis of premature ovarian aging (POA) or a sub-diagnosis of diminished ovarian reserve (DOR). POA was, in turn, defined as baseline follicle stimulating hormone (b-FSH), on Day 2/3 of a cycle as <12 mIU/ml, but exceeding the 95% CI of the mean value for the patient's age group.
Specifically, this meant b-FSH≧7.4 mIU/ml at age 30-34 years and ≧8.6 mIU/ml at age≧35 years. DOR, in turn, was defined as b-FSH≧12 mIU/ml and/or a baseline estradiol level≧75 pg/ml. 49 patients were confirmed with POA and 52 patients were confirmed with DOR, creating a control group of 101 women. Because of potential impending loss of ovarian function in the control group women, the control group women were treated with IVF as soon as possible.
During the time studied, the study group consisted of 89 patients, with diminished ovarian function (POA 24, DOR 65). Each person in the study group was placed on DHEA supplementation. The DHEA supplementation included administering about 25 mg of (pharmaceutical grade) micronized DHEA, three times daily, for up to about four months (mean 3.8±0.3 months). […] This delay of IVF treatment allowed the possibility of spontaneously conceived pregnancies.
as §1, with “comprised” for “consisted of”, “treatment. DHEA and DHEAS levels were monitored monthly, and patients were interviewed at each visit about adverse reactions to DHEA supplementation.” for “treatment.”
In order to assess the impact of DHEA supplementation on time interval to the establishment of pregnancy, this study was designed as a life-table analysis, measuring not only total pregnancy rates but also the time between initial presentation and end of last treatment intervention.
Each recorded clinical pregnancy, defined as positive fetal cardiac activity on ultrasound examination after 6 weeks, was recorded as a positive outcome. Patients who continued treatments beyond the study period or stopped treatments were considered right censored data at the end of the study period, or at treatment cessation, respectively.
A Cox regression analysis was used to evaluate time-to-event. The model that we used stratified for level of ovarian reserve (POA and DOR) and adjusted for age, day 3 FSH, fertility treatments (none, Intrauterine Insemination and controlled ovarian hyperstimulation (IUI/COH), or IVF) and race/ethnicity. A trend in pregnancy rates over months of DHEA exposure with an interaction term for time and DHEA months of exposure was tested. SPSS for Windows, Standard version 10.0.7 (SPSS Co. Chicago, Ill.) was utilized for data analysis. Continuous outcomes are presented as mean±1 standard error. […]

[3] = test system: person with evidence of decreased ovarian reserve; details: human, in vivo
[4] = DHEA group, intrauterine insemination, no IVF
[5] = DHEA group, no other treatment than DHEA

C[C@]12CC[C@H](O)CC1=CC[C@@H]1[C@@H]2CC[C@]2(C)C(=O)CC[C@@H]12 [DHEA, Dehydroepiandrosterone]
miscarriage rate (calculated on reanalysis) [1]: 28.5%
proportional hazards ratio for clinical pregnancy relative to controls (HR) ([2]; Cox regression, 95% CI 1.2 to 11.8): 3.8
Implantation (FH/Embryos trans) ([2]; DHEA group): (11.4%)
Implantation (FH/Embryos trans) (n/N) ([2]; DHEA group): 13/101
Miscarriage (Per clinical Pregnancy) (n/N) ([2]; DHEA group): 5 of 25 and 5/25
Normal Day 3 embryos ([2]; DHEA group): 2.4±0.03 and 2.4 ± 0.3
Oocytes ([2]; DHEA group): 3.9 ± 0.4
Positive hCG (>25 mIU/ml) ([2]; DHEA group): (30%)
Positive hCG (>25 mIU/ml) (n/N) ([2]; DHEA group): 26/88
Transferred embryos ([2]; DHEA group): 2.1±0.2
pregnancies established spontaneously (no IVF treatment) out of the 25 ([2]; DHEA group): 12
Clinical Pregnancy (n/N) ([2]; DHEA group, all 89 patients): 25 of 89 and 25/89
Clinical Pregnancy, IUI/COH [2, 4]: (66.7%)
Clinical Pregnancy, IUI/COH (n/N) [2, 4]: 6 of 9 and 6/9
Clinical Pregnancy, No Treatment [2, 5]: (35.3%)
Clinical Pregnancy, No Treatment (n/N) [2, 5]: 6 of 16 and 6/16
Clinical Pregnancy, IVF (n/N) ([2]; DHEA group, patients reaching IVF): 13/64
Cancellation (IVF) (n/N) ([2]; DHEA group, about 25 mg three times daily, 3.8 ± 0.3 months): 9/63
decrease of the miscarriage rate ([2]; DHEA versus control): about 44%
increase of the percentage of clinical pregnancies ([2]; DHEA versus control): about 157%
mean DHEA and DHEAS levels at cycle day 2 ([2]; approximately two months after initiation of treatment): in the low normal ranges
proportional hazards estimation of pregnancy (HR), extended Cox models ([2]; correction for time dependent variables, 95% CI 1.6 to 14.2): 4.8
(log) peak E2 increase [3]: 0.47±0.06
aneuploid embryos amongst 10 embryos (PGD) [3]: nine
average embryo cell count [3]: 6.83±1.37 and 7.2±1.15
cryopreservable embryo yield increase [3]: 1.4±0.14 embryos per cycle
cryopreservable embryos [3]: 11
embryo morphology [3]: 3.6±0.5 and 3.7±0.5
embryos in a cycle [3]: 9 and 10 and 11
embryos of high enough quality to undergo cryopreservation [3]: 49
embryos produced [3]: 16
oocyte yield increase [3]: 2.5±0.34 oocytes per cycle
oocytes in a cycle [3]: 13 and 16 and 19
oocytes retrieved [3]: 17
total viable embryos cryopreserved [3]: 50
oocytes produced ([3]; po): 19

Reference: patent US9375436B2, “Androgen treatment in females” (priority 2004, dated 2016)
